System: NOMO1
Experiment: cell viability relative to DMSO control; higher = less cytotoxic
Conditions: 48 h
Procedure, shortened: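 In 1536-well plates, 5 μl of leukemia cells were seeded per well: 500 cells/well for NOMO1 or SEM and 1000 cells/well for P12-Ichikawa. Each line had first been adapted for at least four passages in each medium. Library compounds in DMSO were pin-dosed at 11 threefold concentrations between 47 μM and 0.79 nM, and CellTiter-Glo One luminescence was read after 48 h at 37°C. Viability is a per-plate percentage relative to DMSO wells, with cell-free wells as background.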

[1] = HPLM + 10% dialyzed FBS, 0.000781 µM
[2] = HPLM + 10% dialyzed FBS, 0.00234 µM
[3] = HPLM + 10% dialyzed FBS, 0.00702 µM
[4] = HPLM + 10% dialyzed FBS, 0.0211 µM
[5] = HPLM + 10% dialyzed FBS, 0.0632 µM
[6] = HPLM + 10% dialyzed FBS, 0.19 µM
[7] = HPLM + 10% dialyzed FBS, 0.569 µM
[8] = HPLM + 10% dialyzed FBS, 1.71 µM
[9] = HPLM + 10% dialyzed FBS, 5.12 µM
[10] = HPLM + 10% dialyzed FBS, 15.4 µM
[11] = HPLM + 10% dialyzed FBS, 46.1 µM
[12] = RPMI 5 mM glucose + 10% FBS, 0.000781 µM
[13] = RPMI 5 mM glucose + 10% FBS, 0.00234 µM
[14] = RPMI 5 mM glucose + 10% FBS, 0.00702 µM
[15] = RPMI 5 mM glucose + 10% FBS, 0.0211 µM
[16] = RPMI 5 mM glucose + 10% FBS, 0.0632 µM
[17] = RPMI 5 mM glucose + 10% FBS, 0.19 µM
[18] = RPMI 5 mM glucose + 10% FBS, 0.569 µM
[19] = RPMI 5 mM glucose + 10% FBS, 1.71 µM
[20] = RPMI 5 mM glucose + 10% FBS, 5.12 µM
[21] = RPMI 5 mM glucose + 10% FBS, 15.4 µM
[22] = RPMI 5 mM glucose + 10% FBS, 46.1 µM
[23] = RPMI 5 mM glucose + 10% dialyzed FBS, 0.000781 µM
[24] = RPMI 5 mM glucose + 10% dialyzed FBS, 0.00234 µM
[25] = RPMI 5 mM glucose + 10% dialyzed FBS, 0.00702 µM
[26] = RPMI 5 mM glucose + 10% dialyzed FBS, 0.0211 µM
[27] = RPMI 5 mM glucose + 10% dialyzed FBS, 0.0632 µM
[28] = RPMI 5 mM glucose + 10% dialyzed FBS, 0.19 µM
[29] = RPMI 5 mM glucose + 10% dialyzed FBS, 0.569 µM
[30] = RPMI 5 mM glucose + 10% dialyzed FBS, 1.71 µM
[31] = RPMI 5 mM glucose + 10% dialyzed FBS, 5.12 µM
[32] = RPMI 5 mM glucose + 10% dialyzed FBS, 15.4 µM
[33] = RPMI 5 mM glucose + 10% dialyzed FBS, 46.1 µM

Row | SMILES | cell viability [1] [%] | cell viability [2] [%] | cell viability [3] [%] | cell viability [4] [%] | cell viability [5] [%] | cell viability [6] [%] | cell viability [7] [%] | cell viability [8] [%] | cell viability [9] [%] | cell viability [10] [%] | cell viability [11] [%] | cell viability [12] [%] | cell viability [13] [%] | cell viability [14] [%] | cell viability [15] [%] | cell viability [16] [%] | cell viability [17] [%] | cell viability [18] [%] | cell viability [19] [%] | cell viability [20] [%] | cell viability [21] [%] | cell viability [22] [%] | cell viability [23] [%] | cell viability [24] [%] | cell viability [25] [%] | cell viability [26] [%] | cell viability [27] [%] | cell viability [28] [%] | cell viability [29] [%] | cell viability [30] [%] | cell viability [31] [%] | cell viability [32] [%] | cell viability [33] [%]
1 | Cn1c(=O)c2[nH]cnc2n(C)c1=O | 120 | 111 | 121 | 122 | 92.5 | 115 | 120 | 106 | 110 | 102 | 84.8 | 114 | 103 | 103 | 104 | 94 | 100 | 101 | 113 | 95.8 | 99 | 93.6 | 101 | 108 | 104 | 100 | 108 | 96.3 | 92.2 | 99.7 | 106 | 97.5 | 87.7
2 | CCCOc1ccc2[nH]c(NC(=O)OC)nc2c1 | 116 | 116 | 104 | 102 | 76.5 | 36.9 | 31.7 | 32 | 50.3 | 36.6 | 36.6 | 122 | 116 | 120 | 121 | 98.3 | 28.6 | 21.1 | 19.4 | 26.7 | 22.6 | 25.2 | – | – | – | – | – | – | – | – | – | – | –
3 | CN(C)/[N+]([O-])=N/Oc1cc(ON[N+](=O)N2CCN(C(=O)c3cc(Cc4n[nH]c(=O)c5ccccc45)ccc3F)CC2)c([N+](=O)[O-])cc1[N+](=O)[O-] | 101 | 94.9 | 100 | 100 | 115 | 119 | 109 | 104 | 102 | 126 | 117 | 99.1 | 97.4 | 103 | 114 | 99.4 | 102 | 113 | 122 | 119 | 101 | 106 | 93.9 | 112 | 101 | 107 | 118 | 114 | 103 | 109 | 123 | 115 | 120
4 | Nc1nc(Nc2ccc([S+](N)(=O)[O-])cc2)nn1C(=O)c1c(F)cccc1F | 94.7 | 97.4 | 90.6 | 113 | 105 | 109 | 102 | 107 | 120 | 66.1 | 7.01 | 94.7 | 87.8 | 107 | 94 | 94.7 | 99.3 | 93.8 | 87.2 | 93.2 | 50.4 | 8.21 | 98.7 | 86.1 | 100 | 91.5 | 86.9 | 92.7 | 93.1 | 104 | 84.4 | 49.5 | 5.65
5 | C/C(=C\c1csc(C)n1)[C@@H]1C[C@@H]2O[C@@H]2CCC[C@H](C)[C@H](O)[C@@H](C)C(=O)C(C)(C)[C@@H](O)CC(=O)O1 | 33.3 | 25.8 | 27.8 | 28.4 | 29.2 | 31.6 | 30.1 | 30.5 | 34.8 | 34 | 30.7 | 27.2 | 19.5 | 17.9 | 20.3 | 18.1 | 18 | 17.8 | 18.7 | 18.1 | 22.8 | 19.8 | 84.5 | 20.9 | 20 | 21.6 | 23.3 | 20.9 | 21.7 | 25.8 | 24.2 | 31.1 | 23.3
6 | OC1=CC2=C(C(=O)\C=C(/O2)C3=CC=CC=C3)C(=C1O)O | 93.6 | 102 | 117 | 107 | 111 | 106 | 108 | 92.2 | 72.6 | 82.8 | 83.1 | 118 | 105 | 105 | 115 | 96.8 | 111 | 103 | 111 | 84 | 52.4 | 57.4 | 113 | 108 | 110 | 107 | 102 | 112 | 106 | 98.6 | 96 | 55.2 | 64.9
7 | COc1nccc(-c2c(-c3ccc(F)cc3)ncn2C2CCC(O)CC2)n1 (stereo unspecified) | 120 | 123 | 121 | 123 | 132 | 121 | 111 | 122 | 112 | 119 | 51.3 | 107 | 109 | 120 | 115 | 111 | 112 | 103 | 100 | 98.4 | 100 | 35.9 | 122 | 114 | 126 | 109 | 116 | 118 | 105 | 118 | 111 | 107 | 74.3
8 | CCCC(CCC)C(=O)[O-] | 106 | 105 | 113 | 122 | 116 | 120 | 109 | 110 | 101 | 84.9 | 63.8 | 86.1 | 96.6 | 107 | 123 | 106 | 113 | 107 | 102 | 111 | 94.4 | 92.1 | 75.5 | 108 | 105 | 106 | 112 | 116 | 114 | 109 | 98.6 | 110 | 101
9 | C[N+](C)(C)CC(=O)O.[Cl-] | 63.1 | 90.5 | 85 | 94.9 | 94.4 | 86.3 | 95.6 | 89.5 | 104 | 86.5 | 93.9 | 77.1 | 86 | 80.4 | 81.6 | 85.5 | 87.6 | 87.8 | 80.3 | 83.2 | 84.2 | 81.1 | 68.8 | 88.1 | 79.7 | 89.3 | 90.8 | 89.1 | 92.3 | 91.5 | 83.8 | 92 | 84.7
10 | CC1=CC=C2\N=C/3N(CC[C@@]3(O)C(=O)C2=C1)C4=CC=CC=C4 | 102 | 103 | 96.2 | 104 | 104 | 95.4 | 105 | 88.3 | 74 | 88.9 | 91.3 | 82 | 88.2 | 93.6 | 85.4 | 79.3 | 79.5 | 84 | 84.4 | 75.8 | 92.2 | 85.9 | 94.5 | 95.1 | 87.5 | 86.7 | 101 | 92 | 86.7 | 88.9 | 79.2 | 84.9 | 82.9
11 | CCN1\C=C(C(O)=O)/C(=O)C2=C1C=C(N3CCN(C)CC3)C(=C2)F | – | – | – | – | – | – | – | – | – | – | – | 97.7 | 104 | 106 | 108 | 106 | 113 | 107 | 104 | 82 | 71 | 51.9 | 123 | 112 | 112 | 154 | 157 | 77 | 71.9 | 47.7 | 57.6 | 58.5 | 32.6
12 | O=C(c1ccc(/C=C/c2n[nH]c3ccccc23)cc1)N1CCNCC1 | 108 | 96.5 | 88.4 | 87.1 | 97.9 | 120 | 115 | 69.4 | 70.9 | 88.7 | 73.1 | 97 | 100 | 94 | 85.8 | 90.7 | 86.2 | 87.1 | 56.2 | 63.8 | 58.4 | 69 | 86.5 | 85.6 | 88.6 | 97.2 | 87.8 | 97.4 | 93.9 | 54.9 | 49.5 | 65.5 | 71.2
13 | CCC[C@@H](C=O)NC(=O)[C@H](CC(C)C)NC(=O)[C@H](CC(C)C)NC(=O)OCc1ccccc1 | 113 | 121 | 121 | 138 | 138 | 139 | 138 | 75.4 | 19.2 | 7.83 | 5.86 | 101 | 110 | 119 | 135 | 126 | 127 | 127 | 35.3 | 13.9 | 8.52 | 7.79 | 115 | 130 | 124 | 131 | 143 | 143 | 132 | 93.1 | 32.4 | 9.45 | 7.3
14 | Oc1cc2c(cc1O)C1c3ccc(O)c(O)c3OCC1(O)C2 (stereo unspecified) | 95.1 | 89.1 | 104 | 93.5 | 111 | 107 | 102 | 115 | 111 | 105 | 110 | 102 | 92.3 | 101 | 102 | 91.9 | 96.6 | 97.7 | 94.9 | 106 | 92.2 | 93.9 | 77.6 | 87.2 | 104 | 97.2 | 99 | 106 | 107 | 110 | 103 | 103 | 102
15 | CCOC(CN1C(=O)[C@](CC(=O)Nc2ccc(C)cc2)(NC(=O)Nc2ccc(C)cc2)c2ccccc21)OCC | 109 | 112 | 125 | 113 | 123 | 122 | 126 | 124 | 106 | 83.8 | 70.7 | 110 | 107 | 106 | 107 | 113 | 104 | 123 | 125 | 113 | 103 | 49.8 | 99.2 | 101 | 105 | 99.8 | 114 | 115 | 109 | 115 | 99.3 | 93 | 60.3
16 | O=[S+]([O-])(O)c1ccc2cc(/N=N/c3cc([S+](=O)([O-])O)c4cccnc4c3O)ccc2c1 | 114 | 122 | 133 | 136 | 129 | 139 | 122 | 126 | 127 | 110 | 44 | 116 | 106 | 111 | 109 | 119 | 119 | 109 | 110 | 101 | 110 | 44.2 | 121 | 124 | 117 | 115 | 119 | 113 | 121 | 119 | 110 | 106 | 62.1

Source: the supplement of paper PMC11451515
